Source: patent publication US10508120B2, “TYK2 inhibitors and uses thereof” (Nimbus Lakshmi, Inc., priority 2017, dated 2019)
Where two headings read alike, the source gives them in different places.

Assays:
[1] = biological target: JAK2 kinase domain (JH1) (Homo sapiens (Human), UniProt O60674); assay: JAK2 Radioactive Kinase Assay; assay type: biochemical; conditions: for inhibition at 10 µM: read-out: JAK2 JH1% Inhibition @ 10 μM
Outline: (§1)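 Each kinase domain is incubated with test compound at 10 μM. Activity is then measured radiometrically and expressed as percent inhibition relative to uninhibited enzyme.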

[2] = biological target: human TYK2 (JH2domain-pseudokinase) (Homo sapiens (Human), UniProt P29597); assay: TYK2 JH2 Domain Binding Assay (KINOMEscan)
Outline: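 Displacement of a DNA-tagged TYK2 JH2 fusion (human, aa G556–D888, HEK293 extract, <0.1 nM) from ligand-coated beads over 1 h at RT; binding buffer PBS/0.05% Tween 20/10 mM DTT/0.1% BSA.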

[3] = biological target: Tyk2/JAK2 (heterodimeric complex) (Homo sapiens (Human), UniProt P29597); assay: IL-12 Induced pSTAT4 in Human PBMC; assay type: cell-based; conditions: 1.7 ng/mL IL-12
Source text: The IL-12 Induced pSTAT4 assay evaluates the inhibition of IL-12 induced STAT4 phophorylation mediated by Tyk2/JAK2 (heterodimeric complex).

[4] = biological target: Tyk2 kinase domain (DH1) (Homo sapiens (Human), UniProt P29597); assay: Tyk2 Radioactive Kinase Assay; assay type: biochemical; conditions: for inhibition at 10 µM: read-out: Tyk2 JH1% Inhibition @ 10 μM
Outline: as §1

[5] = biological target: JAK2/JAK2 homdimeric complex (Homo sapiens (Human), UniProt O60674); assay: GM-CSF Induced pSTAT5 in Human PBMC; assay type: cell-based; conditions: GM-CSF 5 ng/mL for 20 minutes, pSTAT5 by MSD, read-out: PBMC_GMCSF_pSTAT5 IC50
Chain of JAK2/JAK2 homdimeric complex (O60674 whole entry): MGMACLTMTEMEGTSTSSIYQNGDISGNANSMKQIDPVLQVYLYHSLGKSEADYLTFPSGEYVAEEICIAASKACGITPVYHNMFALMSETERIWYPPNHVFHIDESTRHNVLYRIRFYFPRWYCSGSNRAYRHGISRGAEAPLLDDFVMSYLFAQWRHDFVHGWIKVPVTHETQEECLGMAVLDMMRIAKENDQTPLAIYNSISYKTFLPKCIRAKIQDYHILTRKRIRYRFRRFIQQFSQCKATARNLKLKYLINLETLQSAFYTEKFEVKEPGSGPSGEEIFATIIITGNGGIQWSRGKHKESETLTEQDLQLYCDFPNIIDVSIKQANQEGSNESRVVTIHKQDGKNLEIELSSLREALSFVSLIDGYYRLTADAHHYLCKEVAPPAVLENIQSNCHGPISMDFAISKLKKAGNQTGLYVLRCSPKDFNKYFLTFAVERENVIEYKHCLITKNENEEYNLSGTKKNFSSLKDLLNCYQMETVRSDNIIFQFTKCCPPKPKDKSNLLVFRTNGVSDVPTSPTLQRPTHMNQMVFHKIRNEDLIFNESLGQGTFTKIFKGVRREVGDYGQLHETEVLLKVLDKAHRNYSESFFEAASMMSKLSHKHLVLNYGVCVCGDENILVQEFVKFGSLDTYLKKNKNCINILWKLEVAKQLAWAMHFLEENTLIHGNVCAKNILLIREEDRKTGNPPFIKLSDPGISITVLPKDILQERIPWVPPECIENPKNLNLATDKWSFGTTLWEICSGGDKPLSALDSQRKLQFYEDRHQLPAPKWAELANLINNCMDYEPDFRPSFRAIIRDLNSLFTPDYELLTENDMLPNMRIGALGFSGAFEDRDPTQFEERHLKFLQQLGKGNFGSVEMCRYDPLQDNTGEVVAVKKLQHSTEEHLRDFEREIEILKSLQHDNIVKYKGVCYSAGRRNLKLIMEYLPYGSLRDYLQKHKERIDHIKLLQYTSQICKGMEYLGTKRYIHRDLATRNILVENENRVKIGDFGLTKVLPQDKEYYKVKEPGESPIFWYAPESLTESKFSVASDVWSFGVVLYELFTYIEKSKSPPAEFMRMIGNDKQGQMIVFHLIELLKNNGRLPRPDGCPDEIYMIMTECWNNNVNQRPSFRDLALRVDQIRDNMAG
Chain of JAK2/JAK2 homdimeric complex (P32927 17-897 partner): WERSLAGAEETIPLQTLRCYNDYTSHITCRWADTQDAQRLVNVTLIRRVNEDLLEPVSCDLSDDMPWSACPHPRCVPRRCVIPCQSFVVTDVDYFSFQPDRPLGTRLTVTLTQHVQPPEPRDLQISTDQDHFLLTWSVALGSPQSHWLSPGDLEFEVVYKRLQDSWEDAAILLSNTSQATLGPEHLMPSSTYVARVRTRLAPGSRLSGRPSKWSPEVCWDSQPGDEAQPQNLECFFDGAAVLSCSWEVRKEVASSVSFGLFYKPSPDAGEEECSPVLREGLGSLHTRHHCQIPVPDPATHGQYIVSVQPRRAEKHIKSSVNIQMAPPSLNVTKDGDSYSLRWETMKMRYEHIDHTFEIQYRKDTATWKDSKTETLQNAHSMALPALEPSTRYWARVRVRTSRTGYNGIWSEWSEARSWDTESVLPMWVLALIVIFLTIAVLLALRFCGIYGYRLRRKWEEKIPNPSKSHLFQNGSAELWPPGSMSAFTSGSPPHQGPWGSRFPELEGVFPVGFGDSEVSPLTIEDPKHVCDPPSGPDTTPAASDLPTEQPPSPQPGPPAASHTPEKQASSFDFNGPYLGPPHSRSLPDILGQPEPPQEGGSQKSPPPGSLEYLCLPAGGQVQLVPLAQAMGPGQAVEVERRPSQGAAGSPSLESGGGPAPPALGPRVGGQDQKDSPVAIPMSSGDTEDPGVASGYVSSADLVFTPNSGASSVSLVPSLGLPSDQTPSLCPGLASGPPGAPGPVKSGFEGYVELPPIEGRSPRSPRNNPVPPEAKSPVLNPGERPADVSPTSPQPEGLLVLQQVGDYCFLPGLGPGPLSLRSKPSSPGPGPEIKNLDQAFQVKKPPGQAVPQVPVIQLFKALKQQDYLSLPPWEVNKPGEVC

Chain of Tyk2 kinase domain (DH1) (P29597 897-1176): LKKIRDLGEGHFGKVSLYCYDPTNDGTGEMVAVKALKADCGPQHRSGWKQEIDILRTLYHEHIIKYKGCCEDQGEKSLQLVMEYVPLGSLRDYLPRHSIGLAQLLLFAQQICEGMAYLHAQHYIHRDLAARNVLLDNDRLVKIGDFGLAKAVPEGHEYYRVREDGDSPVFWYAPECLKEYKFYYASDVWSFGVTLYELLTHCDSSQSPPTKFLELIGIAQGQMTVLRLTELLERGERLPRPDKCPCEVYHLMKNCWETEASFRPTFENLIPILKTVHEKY
Chain of human TYK2 (JH2domain-pseudokinase) (P29597 556-888): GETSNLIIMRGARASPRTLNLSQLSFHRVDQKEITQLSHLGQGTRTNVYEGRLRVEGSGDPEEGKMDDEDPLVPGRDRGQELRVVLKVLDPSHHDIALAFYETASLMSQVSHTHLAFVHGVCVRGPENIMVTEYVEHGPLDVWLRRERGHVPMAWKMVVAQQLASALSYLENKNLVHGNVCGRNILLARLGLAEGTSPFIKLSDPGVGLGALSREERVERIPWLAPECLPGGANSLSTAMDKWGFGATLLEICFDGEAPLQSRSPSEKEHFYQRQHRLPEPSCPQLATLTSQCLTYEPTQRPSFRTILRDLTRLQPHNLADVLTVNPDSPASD
Chain of JAK2 kinase domain (JH1) (O60674 849-1124): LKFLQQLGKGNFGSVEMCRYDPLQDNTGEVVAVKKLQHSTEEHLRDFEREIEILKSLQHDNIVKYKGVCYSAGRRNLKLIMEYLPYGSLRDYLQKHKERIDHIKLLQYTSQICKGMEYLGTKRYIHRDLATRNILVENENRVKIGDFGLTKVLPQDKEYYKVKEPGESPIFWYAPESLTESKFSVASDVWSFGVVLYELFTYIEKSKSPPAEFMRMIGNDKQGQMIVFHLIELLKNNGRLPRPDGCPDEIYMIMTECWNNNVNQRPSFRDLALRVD
Chain of Tyk2/JAK2 (heterodimeric complex) (P29597 whole entry, other chains not shown): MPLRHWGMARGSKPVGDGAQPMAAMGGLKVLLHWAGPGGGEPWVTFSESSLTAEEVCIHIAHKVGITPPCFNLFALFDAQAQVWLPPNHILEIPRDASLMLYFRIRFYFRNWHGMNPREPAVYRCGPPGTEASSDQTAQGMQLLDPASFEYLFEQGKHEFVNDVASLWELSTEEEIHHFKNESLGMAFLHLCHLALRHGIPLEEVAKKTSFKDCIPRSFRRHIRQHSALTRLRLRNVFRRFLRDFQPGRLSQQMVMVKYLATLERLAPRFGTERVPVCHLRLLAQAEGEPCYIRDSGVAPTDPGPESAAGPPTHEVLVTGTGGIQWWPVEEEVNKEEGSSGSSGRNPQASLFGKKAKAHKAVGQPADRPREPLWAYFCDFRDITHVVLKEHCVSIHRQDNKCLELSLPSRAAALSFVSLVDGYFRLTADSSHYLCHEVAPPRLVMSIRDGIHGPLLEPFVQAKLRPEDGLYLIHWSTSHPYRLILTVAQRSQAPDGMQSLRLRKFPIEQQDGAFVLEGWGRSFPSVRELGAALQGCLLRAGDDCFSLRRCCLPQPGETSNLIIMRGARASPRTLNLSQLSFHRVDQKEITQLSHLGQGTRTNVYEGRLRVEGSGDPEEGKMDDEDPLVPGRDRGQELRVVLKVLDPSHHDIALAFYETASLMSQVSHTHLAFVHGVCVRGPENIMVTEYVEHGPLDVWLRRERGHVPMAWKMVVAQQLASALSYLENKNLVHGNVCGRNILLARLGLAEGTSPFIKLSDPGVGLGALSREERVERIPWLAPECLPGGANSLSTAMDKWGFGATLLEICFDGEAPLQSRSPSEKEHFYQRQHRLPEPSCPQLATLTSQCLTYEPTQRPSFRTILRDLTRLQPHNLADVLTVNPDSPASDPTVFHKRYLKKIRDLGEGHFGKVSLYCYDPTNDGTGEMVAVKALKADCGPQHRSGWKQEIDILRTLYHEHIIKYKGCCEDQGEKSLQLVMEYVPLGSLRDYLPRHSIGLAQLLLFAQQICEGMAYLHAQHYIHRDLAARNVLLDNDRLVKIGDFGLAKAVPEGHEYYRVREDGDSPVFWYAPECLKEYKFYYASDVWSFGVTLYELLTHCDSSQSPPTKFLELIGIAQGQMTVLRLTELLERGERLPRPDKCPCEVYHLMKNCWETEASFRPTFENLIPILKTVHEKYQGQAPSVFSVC

For CNc1cc(Nc2cccn([C@H]3CCC[C@@H](OC)C3)c2=O)nc2c(C(=O)NCC(C)(C)CO)cnn12 [I-861], the inhibition at 10 µM ([1]; 10 μM compound, 10 μM ATP) was < 50%, the Kd [2] was < 0.0002 µM and the IC50 [3] was < 0.1 µM. The inhibition at 10 µM ([4]; 10 μM compound, 10 μM ATP) was < 50%.
In the case of CNc1cc(-c2cn(CCN3CCN(C)CC3)c3ncccc23)nc2c(C(=O)N[C@H]3CC[C@@H]3OC)cnn12 [I-952], the “JAK2 JH1% Inhibition @ 10 μM” value ([1]; 10 μM compound, 10 μM ATP) is reported as “A (percent inhibition at 10 μM lower than 50)”, the IC50 [5] is reported as > 2.5 µM and the IC50 [3] is reported as 0.1 to 0.5 µM. The “Tyk2 JH1% Inhibition @ 10 μM” value ([4]; 10 μM compound, 10 μM ATP) was “A (percent inhibition at 10 μM lower than 50)”.
In the case of CNc1cc(Nc2cccn3ccnc23)nc2c(C(=O)N[C@@H]3CC[C@H]3OC)cnn12 [I-1133], the Kd [2] is reported as 0.001 to 0.01 µM and the IC50 [3] is reported as < 0.1 µM.
CNc1cc(-c2cn([C@H]3CCCOC3)c3ncccc23)nc2c(C(=O)N[C@H]3CC[C@@H]3OC)cnn12 [I-1365] was tested, and the Kd [2] was < 0.0002 µM and the IC50 [3] was < 0.1 µM.
For CNc1cc(Nc2cccn(-c3ccccn3)c2=O)nc2c(C(=O)N[C@@H]3C[C@H]3OC)cnn12 [I-1286], the Kd [2] was < 0.0002 µM and the IC50 [3] was < 0.1 µM.
In the case of CNc1cc(Nc2cccn([C@H]3CC[C@](C)(O)CC3)c2=O)nc2c(C(=O)N[C@H]3C[C@H]3F)cnn12 [I-372], the inhibition at 10 µM ([1]; compound at 10 μM, ATP 10 μM) is reported as < 50%, the Kd [2] is reported as < 0.0002 µM and the IC50 [3] is reported as < 0.1 µM. For the same molecule, the inhibition at 10 µM ([4]; compound at 10 μM, ATP 10 μM) was < 50%.
CNc1cc(Nc2cccc3ocnc23)nc2c(C(=O)N[C@H]3COC[C@H]3O)cnn12 [I-834] was tested, and the inhibition at 10 µM ([1]; 10 μM compound, 10 μM ATP) was < 50%, the IC50 [5] was > 50 µM and the IC50 [3] was 0.1 to 0.5 µM. The inhibition at 10 µM ([4]; 10 μM compound, 10 μM ATP) was < 50%.
For CNc1cc(-c2cn(C3CCOCC3)c3ncccc23)nc2c(C(=O)N[C@@H]3CC[C@H]3OC)cnn12 [I-1328], the Kd [2] was 0.0002 to 0.001 µM and the IC50 [3] was < 0.1 µM.
In the case of CNc1cc(Nc2cccn(C3CC(F)(F)C3)c2=O)nc2c(C(=O)N[C@H]3CC[C@@H]3OC)cnn12 [I-1389], the Kd [2] is reported as 0.0002 to 0.001 µM and the IC50 [3] is reported as < 0.1 µM.
For CNc1cc(Nc2cccnc2OC2CC2)nc2c(C(=O)N[C@H]3CC[C@@H]3O)cnn12 [I-397], the “JAK2 JH1% Inhibition @ 10 μM” value ([1]; compound at 10 μM, ATP 10 μM) was “A (percent inhibition at 10 μM lower than 50)”, the IC50 [5] was > 50 µM and the IC50 [3] was < 0.1 µM. For the same molecule, the “Tyk2 JH1% Inhibition @ 10 μM” value ([4]; compound at 10 μM, ATP 10 μM) was “A (percent inhibition at 10 μM lower than 50)”.
In the case of CNc1cc(Nc2cccc(C3CCCOC3)n2)nc2c(C(=O)N[C@@H]3C[C@@H]3F)cnn12 (some centres unmarked) [I-522], the Kd [2] is reported as < 0.0002 µM, the IC50 [5] is reported as > 50 µM and the IC50 [3] is reported as < 0.1 µM.
With CNc1cc(Nc2cccn([C@H]3CC[C@@](C)(O)CC3)c2=O)nc2c(C(=O)N[C@H]3C[C@H]3F)cnn12 [I-370] the inhibition at 10 µM ([1]; compound at 10 μM, ATP 10 μM) was < 50%, the Kd [2] was < 0.0002 µM and the IC50 [3] was < 0.1 µM. For the same molecule, the inhibition at 10 µM ([4]; compound at 10 μM, ATP 10 μM) was < 50%.
For CNc1cc(Nc2cccn([C@H]3CCN(CCF)C3)c2=O)nc2c(C(=O)N[C@H]3CC[C@@H]3OC)cnn12 [I-1381], the Kd [2] was 0.0002 to 0.001 µM and the IC50 [3] was < 0.1 µM.
For CNc1cc(-c2cn(C3CCOCC3)c3ncc(F)cc23)nc2c(C(=O)N[C@H]3CC[C@@H]3O)cnn12 [I-1314], the Kd [2] was < 0.0002 µM and the IC50 [3] was < 0.1 µM.
With CNc1cc(Nc2cccn(-c3ncccc3F)c2=O)nc2c(C(=O)O)cnn12 [I-893, 5-((3′-fluoro-2-oxo-2H-[1,2′-bipyridin]-3-yl)amino)-7-(methylamino) pyrazolo[1,5-a]pyrimidine-3-carboxylic acid] the inhibition at 10 µM ([1]; 10 μM compound, 10 μM ATP) was < 50%, the Kd [2] was 0.001 to 0.01 µM and the IC50 [3] was > 1 µM. For the same molecule, the inhibition at 10 µM ([4]; 10 μM compound, 10 μM ATP) was < 50%.
With CNc1cc(Nc2cccn([C@@H]3CC[C@@H]3O)c2=O)nc2c(C(=O)N[C@H]3CC[C@@H]3OC)cnn12 [I-1411] the Kd [2] was 0.001 to 0.01 µM and the IC50 [3] was < 0.1 µM.
CNc1cc(Nc2cc3cccnc3n2C2CC2)nc2c(C(=O)N[C@H]3CC[C@@H]3OC)cnn12 [I-1325] was tested, and the Kd [2] was < 0.0002 µM and the IC50 [3] was < 0.1 µM.
For CNc1cc(-c2cn([C@@H]3CCCOC3)c3ncccc23)nc2c(C(=O)N[C@H]3CC[C@@H]3OC)cnn12 [I-1364], the Kd [2] was 0.0002 to 0.001 µM and the IC50 [3] was < 0.1 µM.
CNc1cc(Nc2cccn(-c3nn(C)cc3C)c2=O)nc2c(C(=O)N[C@H]3C[C@H]3F)cnn12 [I-405] was tested, and the inhibition at 10 µM ([1]; compound at 10 μM, ATP 10 μM) was < 50%, the Kd [2] was 0.0002 to 0.001 µM and the IC50 [3] was 0.1 to 0.5 µM. For the same molecule, the inhibition at 10 µM ([4]; compound at 10 μM, ATP 10 μM) was < 50%.
With CNc1cc(Nc2cccn(-c3nc(C)co3)c2=O)nc2c(C(=O)N[C@@H]3CC[C@@H]3O)cnn12 [I-706] the “JAK2 JH1% Inhibition @ 10 μM” value ([1]; compound at 10 μM, ATP 10 μM) was “A (percent inhibition at 10 μM lower than 50)”, the IC50 [5] was > 50 µM and the IC50 [3] was < 0.1 µM. For the same molecule, the “Tyk2 JH1% Inhibition @ 10 μM” value ([4]; compound at 10 μM, ATP 10 μM) was “A (percent inhibition at 10 μM lower than 50)”.
For CNc1cc(Nc2cccn(-c3nn(C)cc3F)c2=O)nc2c(C(=O)N[C@@H]3C[C@@H]3F)cnn12 [I-1321], the Kd [2] was < 0.0002 µM and the IC50 [3] was < 0.1 µM.
In the case of CNc1cc(-c2cn(CCN3CCCCC3)c3ncccc23)nc2c(C(=O)N[C@@H]3CC[C@H]3O)cnn12 [I-837], the inhibition at 10 µM ([1]; 10 μM compound, 10 μM ATP) is reported as < 50%, the IC50 [5] is reported as > 12.5 µM and the IC50 [3] is reported as < 0.1 µM. The inhibition at 10 µM ([4]; 10 μM compound, 10 μM ATP) was < 50%.
